Source: article PMC10364322, “Evaluation of chronic drug-induced electrophysiological and cytotoxic effects using human-induced pluripotent stem cell-derived cardiomyocytes (hiPSC-CMs)” (Frontiers in Pharmacology, 2023)
Where two headings read alike, the source gives them in different places.

Tested on: hiPSC-CMs (iCell-Cardiomyocytes^2)
Outline: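 Monolayers of hiPSC-CMs on fibronectin-coated MEA plates, 50 K/well, kept at 37°C, 5% CO2; compounds added in 0.1% final DMSO after 5-min baseline. Field potential and impedance parameters expressed as mean ± SD percent change from baseline; arrhythmic events noted; cytotoxicity fluorescence normalized to DMSO, Kruskal-Wallis.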

Compound: C[C@H](CS)C(=O)N1CCC[C@H]1C(=O)O [Captopril]
- BR (beating rate), % change from baseline (1 µM, 2h): 4±4%
- FPD (field-potential duration), % change from baseline (1 µM, 2h): 0±2.5%
- FPDc (field-potential duration corrected by beat-rate), % change from baseline (1 µM, 2h): 0.8±1.8%
- BR (beating rate), % change from baseline (1 µM, 24h): 1±5%
- FPD (field-potential duration), % change from baseline (1 µM, 24h): 5±5.9%
- FPDc (field-potential duration corrected by beat-rate), % change from baseline (1 µM, 24h): 5.1±4.4%
- BR (beating rate), % change from baseline (1 µM, 48h): -7±4%
- FPD (field-potential duration), % change from baseline (1 µM, 48h): 11.5±3.8%
- FPDc (field-potential duration corrected by beat-rate), % change from baseline (1 µM, 48h): 8.8±2.5%
- BR (beating rate), % change from baseline (1 µM, 72h): -10±1%
- FPD (field-potential duration), % change from baseline (1 µM, 72h): 16±2.7%
- FPDc (field-potential duration corrected by beat-rate), % change from baseline (1 µM, 72h): 11.9±2.1%
- BR (beating rate), % change from baseline (1 µM, 96h): -15±4%
- FPD (field-potential duration), % change from baseline (1 µM, 96h): 22±4.6%
- FPDc (field-potential duration corrected by beat-rate), % change from baseline (1 µM, 96h): 15.1±3%
- BR (beating rate), % change from baseline (3 µM, 72h): -9±1%
- FPD (field-potential duration), % change from baseline (3 µM, 72h): 12±0.8%
- FPDc (field-potential duration corrected by beat-rate), % change from baseline (3 µM, 72h): 8.6±0.6%
- BR (beating rate), % change from baseline (3 µM, 96h): -18±2%
- FPD (field-potential duration), % change from baseline (3 µM, 96h): 20.9±1.6%
- FPDc (field-potential duration corrected by beat-rate), % change from baseline (3 µM, 96h): 13.5±1.6%
- BR (beating rate), % change from baseline (3 µM, 2h): 2±2%
- FPD (field-potential duration), % change from baseline (3 µM, 2h): 0.3±1.9%
- FPDc (field-potential duration corrected by beat-rate), % change from baseline (3 µM, 2h): 1.1±1.6%
- BR (beating rate), % change from baseline (3 µM, 24h): 1±3%
- FPD (field-potential duration), % change from baseline (3 µM, 24h): 4.3±0.8%
- FPDc (field-potential duration corrected by beat-rate), % change from baseline (3 µM, 24h): 4.6±1.6%
- BR (beating rate), % change from baseline (3 µM, 48h): -7±2%
- FPD (field-potential duration), % change from baseline (3 µM, 48h): 10.9±2.8%
- FPDc (field-potential duration corrected by beat-rate), % change from baseline (3 µM, 48h): 8.2±1.8%
- BR (beating rate), % change from baseline (10 µM, 2h): 2±2%
- FPD (field-potential duration), % change from baseline (10 µM, 2h): 0.3±1.7%
- FPDc (field-potential duration corrected by beat-rate), % change from baseline (10 µM, 2h): 1±1.6%
- BR (beating rate), % change from baseline (10 µM, 24h): 1±3%
- FPD (field-potential duration), % change from baseline (10 µM, 24h): 5.3±3.7%
- FPDc (field-potential duration corrected by beat-rate), % change from baseline (10 µM, 24h): 5.7±2.8%
- BR (beating rate), % change from baseline (10 µM, 48h): -7±3%
- FPD (field-potential duration), % change from baseline (10 µM, 48h): 13.1±5.3%
- FPDc (field-potential duration corrected by beat-rate), % change from baseline (10 µM, 48h): 10.3±4.5%
- BR (beating rate), % change from baseline (10 µM, 72h): -10±1%
- FPD (field-potential duration), % change from baseline (10 µM, 72h): 14.8±5.3%
- FPDc (field-potential duration corrected by beat-rate), % change from baseline (10 µM, 72h): 11.2±4.9%
- BR (beating rate), % change from baseline (10 µM, 96h): -17±1%
- FPD (field-potential duration), % change from baseline (10 µM, 96h): 23.4±6.5%
- FPDc (field-potential duration corrected by beat-rate), % change from baseline (10 µM, 96h): 16±5.7%
- BR (beating rate), % change from baseline (30 µM, 2h): 2±3%
- FPD (field-potential duration), % change from baseline (30 µM, 2h): 3.4±1.3%
- FPDc (field-potential duration corrected by beat-rate), % change from baseline (30 µM, 2h): 4±1.3%
- BR (beating rate), % change from baseline (30 µM, 24h): 1±3%
- FPD (field-potential duration), % change from baseline (30 µM, 24h): 7.4±4.1%
- FPDc (field-potential duration corrected by beat-rate), % change from baseline (30 µM, 24h): 7.7±2.9%
- BR (beating rate), % change from baseline (30 µM, 48h): -7±1%
- FPD (field-potential duration), % change from baseline (30 µM, 48h): 13.9±3.1%
- FPDc (field-potential duration corrected by beat-rate), % change from baseline (30 µM, 48h): 11.4±2.7%
- BR (beating rate), % change from baseline (30 µM, 72h): -9±2%
- FPD (field-potential duration), % change from baseline (30 µM, 72h): 15.6±2%
- FPDc (field-potential duration corrected by beat-rate), % change from baseline (30 µM, 72h): 12.1±2.1%
- BR (beating rate), % change from baseline (30 µM, 96h): -16±2%
- FPD (field-potential duration), % change from baseline (30 µM, 96h): 23.3±2.4%
- FPDc (field-potential duration corrected by beat-rate), % change from baseline (30 µM, 96h): 16±2.1%
- cessation of beating, flat T-wave or arrhythmic-like events (all concentrations tested, up to 96 h): no cessation of beating, flat T-wave or arrhythmic-like events were detected
